Results: publication PMC8538057, “Direct Delivery of ANA-TA9, a Peptide Capable of Aβ Hydrolysis, to the Brain by Intranasal Administration” (Pharmaceutics, 2021)
Ends that are not written are not given here.

Tests used:
[1] = In vitro stability in the plasma; format: in vitro ADME; settings: rat plasma, 10 μL ANA-TA9 PBS solution (0.1 mg/mL or 1 mg/mL) added to 90 μL plasma, 37 °C, methanol deproteinization, LC/MS, three experiments
Description: (§1) After the anesthetization of rats with an i.p. application of the anesthetic mixture, the cerebrospinal fluid (CSF) was collected by cisternal puncture, followed by the collection of whole blood from the polyethylene cannula inserted into the right femoral artery. The blood was heparinized and centrifuged at 15,000 rpm for 10 min at 4 °C, and the supernatant was collected as plasma.
(§2) ANA-TA9 was dissolved in PBS at a concentration of 0.1 mg/mL or 1 mg/mL. Immediately before the incubation, 5 μL or 10 μL of the ANA-TA9 solution was added to 45 μL or 90 μL of CSF or plasma, respectively. Similarly, 10 μL of the ANA-TA9 solution was added to 90 μL of whole blood. At predetermined times after the incubation at 37 °C, the samples were cooled by placing them on ice. Methanol (1 mL) was added to the plasma and whole blood for deproteinization. The mixtures were then vortexed and centrifuged at 15,000 rpm for 5 min at 4 °C. […] The concentrations of ANA-TA9 in the plasma and whole blood were measured by LC/MS. The ANA-TA9 concentrations were measured in the CSF samples by LC/MS without any treatments.
(§3) Chromatographic separation was performed using a C18 analytical column (TSKgel ODS 100V, 3 μm, 2.0 mm × 100 mm; TOSOH, Tokyo, Japan). […] ANA-TA9 eluting from the column was detected with mass spectrometry under the positive mode. […] The calibration curves of ANA-TA9 in the plasma and the brain were determined.

in vivo = assay: in vivo; design: species or system male Wistar/ST rats; settings: male, Wistar/ST, rat, 2 mg
Description: ANA-TA9 diluted in PBS was administered to the left nostril of male Wistar/ST rats (n = 3) at a dose of 2 mg (20 μL of 100 mg/mL). For the comparison, i.v. administration served as the control for i.n. administration. The same dose of ANA-TA9 ([…] of a 10 mg/mL PBS solution) was administered into the left femoral vein of 3 rats. CSF was collected 10 min after i.n. administration by cisternal puncture. An incision was made in the skin over the occipital bone, and the first layer of the muscle was cut. The sharp end of a 25-G needle connected to PE-50 tubing (1 m length) was carefully inserted into the cisterna magna. CSF was withdrawn into the tubing with a disposable syringe. Collection was terminated as soon as blood appeared in the tubing. CSF in the tubing was ejected into a ProteoSave SS 1.5 mL microtube (Sumitomo Bakelite Co., Ltd., Tokyo, Japan) and frozen at −40 °C. The CSF volumes ranged between 100 and 150 μL (n = 6). The plasma and brain concentrations of ANA-TA9 were determined by LC/MS, LC-20A, and LCMS-2020 (SHIMADZU, Kyoto, Japan). Briefly, 100 μL of the plasma were mixed with 1000 μL of methanol. […] To the dissected brain tissue, 100 μL of ice-cold purified water were added, and the mixture was homogenized under ice-cold conditions. To the homogenate, 4000 μL of ice-cold methanol were added. […] The residues were reconstituted with 100 μL of the mobile phase of the chromatography. In the preliminary study, it was confirmed that the effect of rapid degradation of ANA-TA9 on the assay could be excluded by the treatment on the blood and brain tissues mentioned above. Chromatographic separation was performed using a C18 analytical column (TSKgel ODS 100V, 3 μm, 2.0 mm × 100 mm; TOSOH, Tokyo, Japan). The mobile phase was acetonitrile/0.1% acetic acid (10/90), and the flow rate was 0.2 mL/min. ANA-TA9 eluting from the column was detected with mass spectrometry under the positive mode. Nitrogen gas was used for nebulization at a flow rate of 1.5 L/min. […] The calibration curves of ANA-TA9 in the plasma and the brain were determined.

Aβ42 = settings: also three Aβ fragment peptides, particularly Aβ11–29; cited from earlier work
Source text: Recently, we reported the proteolytic activity of the shorter synthetic peptides JAL-TA9 (YKGSGFRMI) and ANA-TA9 (SKGQAYRMI), derived from the Box A region of the Tob1 and ANA/BTG3 proteins. These peptides cleave Aβ42 and three Aβ fragment peptides, particularly Aβ11–29 originating from the central region, which is considered the core region of Aβ42 aggregation/oligomerization. We gave these peptides the general name Catalytide. Catalytides such as JAL-TA9 and ANA-TA9 are attractive candidate peptide drugs for a novel strategy for preventing and treating AD.

[2] = In vitro stability in the cerebrospinal fluid; format: in vitro ADME; settings: cerebrospinal fluid (CSF), rat CSF, 37 °C, LC/MS without treatment, three experiments
Description: as §1, §2, §3

**Q.** With SKGQAYRMI [ANA-TA9] as the sequence, how does the “concentration of ANA-TA9 in the plasma at 5 min after the start of the incubation” value [1] read?
**A.** 20 µg/mL

**Q.** And the level at 10 min (in vivo; inhaled or intranasal, CSF concentration 10 min after i.n. administration)?
**A.** 72 ± 6 ng/mL

**Q.** And the level at 10 min (in vivo; inhaled or intranasal, plasma concentration 10 min after i.n. administration)?
**A.** 24 ± 5 ng/mL

**Q.** What about the level at 10 min (in vivo; iv, plasma concentration 10 min after i.v. administration) of the same sequence?
**A.** 10 ± 1 ng/mL

**Q.** What about the “cleavage of Aβ42 (proteolytic activity)” value (Aβ42) of the same sequence?
**A.** cleave Aβ42

**Q.** What about the remaining at 0.5 h ([2]; 5 μL ANA-TA9 PBS solution (0.1 mg/mL or 1 mg/mL) added to 45 μL CSF, 30 min, read-out: CSF concentration remaining at 30 min after the start of the incubation) of the same sequence?
**A.** 74%

**Q.** What about the remaining at 2 h ([2]; 5 μL ANA-TA9 PBS solution added to 45 μL CSF, 2 h, read-out: CSF concentration remaining at 2 h after the start of the incubation) of the same sequence?
**A.** 46%
